From US5721103A, “Trienoic retinoid compounds and methods” (Ligand Pharmaceuticals Incorporated, priority 1995, dated 1998)
Blank lines part the entries; values can stand above or below the molecule they belong to.

Tests used:
[1] = test system: ornithine decarboxylase (ODC); experiment: Ornithine decarboxylase assay, inhibition of TPA induction of ODC; type: cell-based; settings: esters of Compounds 9 and 10
RARs and RXRs = experiment: Co-transfection assay, RAR and RXR receptors taken together; type: cell-based
Experimental: Utilizing the "cis-trans" or "co-transfection" assay described by Evans et al., Science, 240:889-95 (May 13, 1988), the disclosure of which is herein incorporated by reference, the retinoid compounds of the present invention were tested and found to have strong, specific activity as either selective RAR agonists, selective RXR agonists, or as pan-agonist activators of both RAR and RXR receptors. This assay is described in further detail in U.S. Pat. Nos. 4,981,784 and 5,071,773, the disclosures of which are incorporated herein by reference.
In the co-transfection assay, a cloned cDNA for an IR (e.g., human RARα, RARβ, RXRγ) under the control of a constitutive promoter (e.g., the SV 40 promoter) is introduced by transfection (a procedure to induce cells to take up foreign genes) into a background cell substantially devoid of endogenous IRs. This introduced gene directs the recipient cells to make the IR protein of interest. A second gene is also introduced (co-transfected) into the same cells in conjunction with the IR gene. This second gene, comprising the cDNA for a reporter protein, such as firefly luciferase (LUC), is controlled by an appropriate hormone responsive promoter containing a hormone response element (HRE). This reporter plasmid functions as a reporter for the transcription-modulating activity of the target IR. Thus, the reporter acts as a surrogate for the products (mRNA then protein) normally expressed by a gene under control of the target receptor and its native hormone.
The co-transfection assay can detect small molecule agonists or antagonists of target IRs. Exposing the transfected cells to an agonist ligand compound increases reporter activity in the transfected cells. This activity can be conveniently measured, e.g., by increasing luciferase production, which reflects compound-dependent, IR-mediated increases in reporter transcription. […] . Increasing concentrations of a suspected antagonist will decrease the reporter signal (e.g., luciferase production). The co-transfection assay is therefore useful to detect both agonists and antagonists of specific IRs. Furthermore, it determines not only whether a compound interacts with a particular IR, but whether this interaction mimics (agonizes) or blocks (antagonizes) the effects of the native regulatory molecules on target gene expression, as well as the specificity and strength of this interaction.
To determine RAR and/or RXR agonist activity of the compounds of the present invention, the CV-1 cells were transiently transfected by calcium phosphate coprecipitation according to the procedure of Berger et al., 41 J. Steroid Biochem. Mol. Biol., 733 (1992) with the following receptor expressing plasmids: pRShRARα: Giguere et at., 330 Nature, 624 (1987); pRShRARβ and pRShRARγ, Ishikawa et al., 4 Mol. Endocrin., 837 (1990); pRShRXRα, Mangelsdorf et at., 345 Nature, 224 (1990); and pRSmRXRβ and pRSmRXRγ, Mangelsdorf et al., 6 Genes & Devel., 329 (1992), the disclosures of which are herein incorporated by reference. Each of these receptor expressing plasmids was co-transfected at a concentration of 5 ng/well, along with a basal reporter plasmid at 100 ng/well, the internal control plasmid pRS-β-Gal at 50 ng/well and filler DNA, pGEM at 45 ng/well.

RAR and RXR receptors = experiment: Binding to the retinoid receptors taken together; settings: RARs and RXRs; compounds 9 and 10 versus ATRA and 9-cis
RARγ = target: T1, RARγ (Homo sapiens, UniProt P13631); experiment: Co-transfection assay, RARγ agonist activity; type: cell-based
T1 construct: expressed in transfected cells; host or cells: CV-1 (African green monkey kidney)
T1 sequence (P13631 1-454): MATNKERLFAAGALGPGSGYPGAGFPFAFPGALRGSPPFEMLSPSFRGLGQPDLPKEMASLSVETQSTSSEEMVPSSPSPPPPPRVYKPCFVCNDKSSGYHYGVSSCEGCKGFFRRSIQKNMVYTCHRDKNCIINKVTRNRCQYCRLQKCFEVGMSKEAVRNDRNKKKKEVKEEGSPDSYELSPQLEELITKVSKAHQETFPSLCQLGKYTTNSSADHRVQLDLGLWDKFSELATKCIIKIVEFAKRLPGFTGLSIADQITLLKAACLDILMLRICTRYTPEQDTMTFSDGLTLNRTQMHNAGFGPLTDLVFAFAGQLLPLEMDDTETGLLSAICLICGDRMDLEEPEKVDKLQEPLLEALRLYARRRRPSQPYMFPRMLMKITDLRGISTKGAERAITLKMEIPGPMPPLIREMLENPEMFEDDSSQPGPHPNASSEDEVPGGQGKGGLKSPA

RARα = target: T2, RARα (Homo sapiens, UniProt P10276); experiment: Co-transfection assay, RARα agonist activity; type: cell-based; settings: CV-1 cells, 40 hours, read-out: Potency (EC50) RARα
T2 construct: expressed in transfected cells; host or cells: CV-1 (African green monkey kidney)
T2 sequence (P10276 1-462): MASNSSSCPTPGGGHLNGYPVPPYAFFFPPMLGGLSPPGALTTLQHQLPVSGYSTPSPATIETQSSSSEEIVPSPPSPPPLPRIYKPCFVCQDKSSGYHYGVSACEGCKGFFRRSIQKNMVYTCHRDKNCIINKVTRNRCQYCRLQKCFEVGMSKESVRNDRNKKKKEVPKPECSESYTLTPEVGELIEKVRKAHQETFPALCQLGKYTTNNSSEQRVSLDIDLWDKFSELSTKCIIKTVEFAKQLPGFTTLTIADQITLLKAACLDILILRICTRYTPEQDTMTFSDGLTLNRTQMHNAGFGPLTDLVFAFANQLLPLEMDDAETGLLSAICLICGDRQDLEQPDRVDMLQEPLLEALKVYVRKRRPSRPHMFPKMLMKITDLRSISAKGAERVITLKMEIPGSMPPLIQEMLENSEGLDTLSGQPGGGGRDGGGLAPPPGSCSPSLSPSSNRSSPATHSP

RARβ = target: T3, RARβ (Homo sapiens, UniProt P10826); experiment: Co-transfection assay, RARβ agonist activity; type: cell-based; settings: CV-1 cells, 40 hours, read-out: Potency (EC50) RARβ
T3 construct: expressed in transfected cells; host or cells: CV-1 (African green monkey kidney)
T3 sequence (P10826 1-448 isoform P10826-2): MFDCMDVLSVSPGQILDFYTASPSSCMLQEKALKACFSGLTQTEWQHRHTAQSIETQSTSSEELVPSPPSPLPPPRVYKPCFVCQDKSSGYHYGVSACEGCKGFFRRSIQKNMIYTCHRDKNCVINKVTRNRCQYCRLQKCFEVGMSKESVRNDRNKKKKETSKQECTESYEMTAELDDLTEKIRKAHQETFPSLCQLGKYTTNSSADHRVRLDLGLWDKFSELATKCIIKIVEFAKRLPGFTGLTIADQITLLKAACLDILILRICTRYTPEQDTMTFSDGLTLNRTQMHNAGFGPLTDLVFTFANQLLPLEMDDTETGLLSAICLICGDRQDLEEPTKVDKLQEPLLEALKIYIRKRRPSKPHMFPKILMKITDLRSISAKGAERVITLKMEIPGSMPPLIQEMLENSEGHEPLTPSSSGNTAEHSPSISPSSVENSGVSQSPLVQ

RXRα = target: T4, RXRα (Homo sapiens, UniProt P19793); experiment: Co-transfection assay, RXRα agonist activity; type: cell-based; settings: CV-1 cells, 40 hours, read-out: Potency (EC50) RXRα
T4 construct: expressed in transfected cells; host or cells: CV-1 (African green monkey kidney)
T4 sequence (P19793 1-462): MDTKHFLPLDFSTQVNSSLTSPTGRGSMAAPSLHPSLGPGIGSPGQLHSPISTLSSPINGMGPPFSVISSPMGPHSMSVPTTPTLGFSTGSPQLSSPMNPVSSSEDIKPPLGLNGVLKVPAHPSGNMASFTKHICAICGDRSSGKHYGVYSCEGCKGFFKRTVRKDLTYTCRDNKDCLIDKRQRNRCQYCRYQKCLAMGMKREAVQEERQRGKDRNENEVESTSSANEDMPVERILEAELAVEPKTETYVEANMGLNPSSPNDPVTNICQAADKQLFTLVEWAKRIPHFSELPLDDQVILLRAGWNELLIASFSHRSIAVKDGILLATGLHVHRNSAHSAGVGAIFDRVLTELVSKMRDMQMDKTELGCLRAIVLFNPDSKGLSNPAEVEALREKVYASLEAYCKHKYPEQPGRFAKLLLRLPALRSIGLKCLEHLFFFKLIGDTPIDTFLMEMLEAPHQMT

RXRβ = target: T5, RXRβ (Mus musculus, UniProt P28704); experiment: Co-transfection assay, RXRβ agonist activity; type: cell-based; settings: CV-1 cells, 40 hours, read-out: Potency (EC50) RXRβ
T5 construct: expressed in transfected cells; host or cells: CV-1 (African green monkey kidney)
T5 sequence (P28704 1-520): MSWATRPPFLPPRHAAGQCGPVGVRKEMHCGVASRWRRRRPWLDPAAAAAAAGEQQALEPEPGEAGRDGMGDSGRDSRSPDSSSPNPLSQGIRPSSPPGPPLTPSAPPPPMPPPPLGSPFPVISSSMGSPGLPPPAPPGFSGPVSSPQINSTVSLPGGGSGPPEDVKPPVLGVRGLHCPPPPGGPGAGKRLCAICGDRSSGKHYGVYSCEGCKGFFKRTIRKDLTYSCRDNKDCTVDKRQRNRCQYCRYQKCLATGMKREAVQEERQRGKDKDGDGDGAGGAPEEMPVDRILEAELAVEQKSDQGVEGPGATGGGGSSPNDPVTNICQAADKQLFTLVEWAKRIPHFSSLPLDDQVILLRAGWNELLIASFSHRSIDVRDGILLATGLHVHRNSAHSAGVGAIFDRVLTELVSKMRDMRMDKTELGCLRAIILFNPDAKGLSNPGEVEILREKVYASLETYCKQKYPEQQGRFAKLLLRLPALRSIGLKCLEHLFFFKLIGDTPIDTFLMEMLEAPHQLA

RXRγ = target: T6, RXRγ (Mus musculus, UniProt P28705); experiment: Co-transfection assay, RXRγ agonist activity; type: cell-based; settings: CV-1 cells, 40 hours, read-out: Potency (EC50) RXRγ
T6 construct: expressed in transfected cells; host or cells: CV-1 (African green monkey kidney)
T6 sequence (P28705 1-463): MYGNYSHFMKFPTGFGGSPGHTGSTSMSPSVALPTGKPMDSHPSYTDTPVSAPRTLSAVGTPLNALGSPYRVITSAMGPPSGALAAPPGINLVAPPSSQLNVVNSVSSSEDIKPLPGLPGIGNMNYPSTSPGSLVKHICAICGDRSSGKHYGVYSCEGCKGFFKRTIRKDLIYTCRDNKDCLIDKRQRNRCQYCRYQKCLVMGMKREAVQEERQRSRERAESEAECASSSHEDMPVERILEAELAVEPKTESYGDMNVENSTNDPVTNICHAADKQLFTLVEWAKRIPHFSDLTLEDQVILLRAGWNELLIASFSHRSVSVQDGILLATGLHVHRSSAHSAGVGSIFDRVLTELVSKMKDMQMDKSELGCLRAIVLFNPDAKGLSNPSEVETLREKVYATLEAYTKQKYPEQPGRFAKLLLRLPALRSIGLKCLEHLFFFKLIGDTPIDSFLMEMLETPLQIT

SMILES: C/C(=C/C=C/C(C)=C/C(=O)O)c1cc(C(C)(C)C)cc(C(C)(C)C)c1 [Compound 10, (2E, 4E, 6Z)-7-(3,5-Di-t-butylphenyl)-3-methylocta-2,4,6-trienoic acid]
potency profile in comparison to 9-cis retinoic acid (in words) (RARs and RXRs; versus 9-cis, pan-agonist): superior potency profile
binding on the retinoid receptors (in words) (RAR and RXR receptors): equal or superior binding

SMILES: CC(/C=C/C=C(\C)c1cc(C(C)(C)C)cc(C(C)(C)C)c1)=C\C(=O)O [Compound 9, (2E, 4E, 6E)-7-(3,5-Di-t-butylphenyl)-3-methylocta-2,4,6-trienoic acid]
activity on RARγ (in words) (RARγ): sub-nanomolar activity on RARγ
RAR activity (in words) (RARs and RXRs; RARs): extremely potent RAR active compounds
binding on the retinoid receptors (in words) (RAR and RXR receptors): equal or superior binding

SMILES: CCc1cc(C)c(\C(C)=C/C=C/C(C)=C/C(=O)O)cc1CC [Compound 54]
EC50 (RARα): > 10000 nM
EC50 (RARβ): 130 nM
EC50 (RARγ; CV-1 cells, 40 hours, read-out: Potency (EC50) RARγ): 320 nM
EC50 (RXRα): 58 nM
EC50 (RXRβ): 28 nM
EC50 (RXRγ): 78 nM

Results, then the molecule that gave them:

retinoid activity of ester analogs (in words) [1]: exhibit retinoid activity
SMILES: CCOC(=O)/C=C(C)/C=C/C=C(\C)c1cc(C(C)(C)C)cc(C(C)(C)C)c1 [Compound 7, Ethyl (2E, 4E, 6E)-7-(3,5-di-t-butylphenyl)-3-methylocta-2,4,6-trienoate]

retinoid activity of ester analogs (in words) [1]: exhibit retinoid activity
SMILES: CCOC(=O)/C=C(C)/C=C/C=C(/C)c1cc(C(C)(C)C)cc(C(C)(C)C)c1 [Compound 8, Ethyl (2E, 4E, 6Z)-7-(3,5-di-t-butylphenyl)-3-methylocta-2,4,6-trienoate]
